Data from publication PMC12123458, “Unraveling Small Molecule-Mediated Sirtuin 3 Activation at a Distinct Binding Site for Cardioprotective Therapies” (ACS Central Science, 2025).

Tests used:
H9c2 cells = assay: Dox-induced cardiotoxicity model in H9c2 cells, MTT cell viability; assay type: cell-based; conditions: Dox-treated H9c2 cells, cell viability
Method: H9c2 cardiomyocytes were cultured in high-glucose DMEM supplemented with 10% FBS and 1% penicillin/streptomycin under a 5% CO2 atmosphere at 37 °C. Cells were seeded at 5 × 10^4 cells/mL in 96-well plates and treated with 1 μM Dox for 24 h. After Dox treatment, cell viability was quantified via MTT assay; 3-(4,5-dimethythiazol-2-yl)-2,5-diphenyltetrazolium bromide (MTT, 5 mg/mL) was applied for 4 h, followed by DMSO dissolution of formazan crystals. Additionally, cells were pretreated with 10 μM SKLB-11A for 24 h prior to 1 μM Dox exposure, and viability was similarly assessed using MTT.

[1] = test system: LC3, p62, PINK1, Parkin in H9c2 cells; assay: Autophagy/mitophagy markers in H9c2 cells (Western blot, immunofluorescence); assay type: cell-based; conditions: 24 h
Method: Proteomic analysis was conducted on H9c2 cells and murine cardiac tissues. Protein lysates were resolved via SDS-PAGE and transferred onto PVDF membranes. […] After washing, membranes were probed with secondary antibodies for 1 h at room temperature. Detection was facilitated by an ECL kit, with densitometry performed using ImageJ software to quantify protein expression, normalized against controls. The antibodies employed included: anti-SIRT3 (2627, Cell Signaling Technology), anti-acetylated lysine (9441, CST), anti-Ac.K68-MnSOD2 (ab137037, Abcam), anti-Ac.K122-MnSOD2 (ab214675, Abcam), anti-MnSOD2 (13141, CST), anti-LC3B (3868, CST), anti-p62 (8025, CST), anti-PINK1 (6946, CST), anti-Parkin (4211, CST), and anti-β-actin (ab8226, Abcam).

## c1cncc(-c2cn[nH]n2)c1 [3-TYP, reference compound]
H9c2 cells
  effect of co-treatment on the cardioprotective efficacy of SKLB-11A: attenuated the efficacy of SKLB-11A
[1]
  LC3-II and p62 (autophagic flux): reduced LC3-II localization
